≈ marks a conversion by molar mass, not a printed value.
Tests used:
chorioallantoic membrane = test: Hen's egg test-chorioallantoic membrane (HET-CAM); set-up: species or system white leghorn eggs
Experimental: The samples were all tested on the HET-CAM at 1 mg/ml, providing a range of 3.6 mM for linolenic acid to 5 mM for lauric acid. […] Results from the controls and an example of a tested candidate are illustrated in Fig. 5.
The HET-CAM was performed as described by Alany and coworkers ([20]). Fertilized white leghorn eggs (Henry Stewart and Co. Ltd., Fakenham, Norfolk, United Kingdom) were checked for damage and incubated at 37°C with 60% to 70% relative humidity. At day 4, the eggs were removed from their shells and placed in incubation chambers. At day 9, the CAMs were tested. This was done by applying 200 µl of the testing material and monitoring inflammatory responses at 30, 120, and 300 s. At each of these time points, the conjunctival irritation potential of the test substance on the CAMs was evaluated by assessing them against the published scoring system ([20]).

[1] = tested on: gonococcal cells (isolate NCCP 11945); test: Log reduction in artificial tear fluid with or without calcium chloride; assay type: cell-based, Neisseria gonorrhoeae; conditions: calcium 1 mM; Fig. 2
Experimental: The antigonococcal properties of the seven selected fatty acids were tested in artificial tear fluid, which contained calcium chloride. The addition of 1 mM lauric acid, tridecanoic acid, or sodium dodecanoate gave no reduction in bacterial cell number after exposure, in contrast to the results seen when they were tested in culture medium (Fig. 2). […] This was most likely due to the negative effect of calcium on the aqueous solubility of these candidates.
Artificial tear fluid was made as described by Mirejovsky and others ([39]) with or without calcium chloride. […] As with the previous log reductions, 10^7 gonococcal cells (isolate NCCP 11945) were suspended in GC broth. The cell suspension was centrifuged to remove the culture medium, and the bacteria were resuspended in the tear fluid. This was then added to the concentrated organic acid candidates. The cells were then enumerated again after 2 min of exposure to estimate any reduction in cell number due to the exposure to the organic acid.

[2] = tested on: N. gonorrhoeae strain NCCP11945; test: Growth inhibition screen on GC solid media containing 1 mM candidate; assay type: cell-based, Neisseria gonorrhoeae; conditions: 1 mM candidate in GC agar media; Yes = strain NCCP11945 did not grow
Experimental: (§1) To find potential candidates, 37 organic acids, esters, and salts were tested in a two-tiered screening process. These candidates were chosen based on the carbon chain lengths of the fatty acids, the presence or absence of saturation, and modifications to represent a diverse selection of organic acid candidates. The first screen aimed to determine the ability of each compound to inhibit the growth of N. gonorrhoeae strain NCCP11945 at 1 mM in GC solid media (Table 1). This strain was chosen due to its relatively recent isolation, its antibiotic resistance profile, and the availability of a complete genome sequence. Those candidates able to inhibit the growth of N. gonorrhoeae strain NCCP11945 were investigated in a second assay. The second assay tested the ability of each compound to cause at least a 4-log reduction in viable bacteria at 1 mM with a 2-min exposure time (Table 1).
(§2) The well-characterized N. gonorrhoeae NCCP11945 strain ([36]) was used in the screening stage. Eight isolates obtained from Public Health England, representing circulating isolates from various European locations, were used in the log reduction assays. All isolates were cultured for 24 h prior to testing by plating on GC solid medium (Oxoid Limited, Hampshire, United Kingdom) with Kellogg supplements and incubation at 37°C and 5% CO2 ([37]).

[3] = tested on: nine gonococcal isolates (strain NCCP11945 and eight isolates from Public Health England); test: Minimum bactericidal concentration by log reduction against nine gonococcal isolates; assay type: cell-based, Neisseria gonorrhoeae; conditions: 2 min; for Killing of all gonococcal cells for all isolates: 1 mM; for MBC: Neisseria gonorrhoeae, lowest concentration giving mean log reduction above 4 from a 2-min exposure, read-out: MBC
From the text: The seven candidates were further tested against nine gonococcal isolates, including strain NCCP11945 and eight isolates from Public Health England, to find their minimal bactericidal concentration (MBC). This was defined as the lowest concentration tested to give an average 4-log10 reduction in bacterial count after a 2-min exposure. […] Any candidate that killed all gonococcal cells in the cell suspension was given a log reduction score of six.
as §2
(§3) Log reductions were done as described by Bergsson and coworkers ([18]). Briefly, cells were suspended in GC broth (18 g/liter GC base [Oxoid, Limited] with added defined supplements) to an optical density at 520 nm of 0.3, which is approximately equivalent to 10^7 to 10^8 cells per ml ([38]). […] The contents of the tubes were then mixed at room temperature for 2 min and immediately diluted in a 10-fold dilution series to 10^−4. The dilutions were plated by spreading 10 µl on a quarter of a plate; a 100-µl neat solution was also plated. Plates were then incubated at 37°C for 48 h, with all samples plated in duplicate. […] Additional testing at lower concentrations was also done on the eight clinical isolates of European origin.

[4] = tested on: N. gonorrhoeae strain NCCP11945; test: Log reduction assay in GC broth, 2-min exposure; assay type: cell-based, Neisseria gonorrhoeae; conditions: for log reduction at 1000 µM: Neisseria gonorrhoeae, NCCP11945, 2 min, 1 mM, read-out: Log reduction at 1 mM (calculated log reduction in viable bacteria)
Experimental: as §1, §3

C. trachomatis = tested on: C. trachomatis; set-up: method as in PMID 9736551; conditions: cited from earlier work
S. aureus = tested on: S. aureus; set-up: method as in PMID 22808139; conditions: continuous passage on sublethal concentrations for a year; cited from earlier work
bovine cornea = test: Bovine corneal opacity and permeability (BCOP) test
Experimental: Bovine eyes were collected from a local slaughter house (ABP, Guildford, Surrey, United Kingdom) and were transported in cold saline solution for testing at the laboratory. Each eye was first visually examined for signs of damage before use. The test was conducted as detailed by Abdelkader and coworkers ([21]). The exposure time of the test substances was 30 s. The selected bactericidal compounds were tested at 1 mM in saline solution, with a corresponding vehicle control (1% ethanol–saline solution) also performed. […] The test area of the cornea was then washed with 10 ml saline solution. Corneal damage to the test area was assessed by fluorescein staining and examination under a cobalt blue filter. Pathological scoring based on opacity, epithelial integrity, and epithelial detachment was done in accordance with previous publications ([19]). Each of the seven lead candidates was tested in triplicate, and each test was performed on a separate day using a different batch of eyeballs. Corneal histology was done as outlined by Abdelkader and coworkers ([21]) by evaluating the damage to the epithelial layer and stroma of the cornea after hematoxylin and eosin staining.

bovine RBCs = test: Red blood cell (RBC) lysis assay; assay type: cell-based; conditions: H50 = concentration to lyse 50% of RBCs; MBC from Table 1
Experimental: Whole bovine blood was obtained from a local slaughter house (ABP), adding 90 ml blood to 10 ml 110 mM trisodium citrate anticoagulant. RBCs were isolated the same day. The RBCs were washed by three repeats of centrifugation (1,500 × g for 10 min) and resuspension in phosphate-buffered saline (PBS) with 10 mM glucose (PBSG). Testing was done following the guidelines of the European Union Reference Laboratory for alternatives to animal testing (EURL-ECVAM) ([22]). The organic acids were solubilized in dimethyl sulfoxide (DMSO) and diluted to a maximum DMSO concentration of 10%. In a 2-ml centrifuge tube, 750 µl of the sample was added to 250 µl RBCs. Controls used in the assay were a complete lysis control (deionized water) and a fragility control (PBSG–10% DMSO). Samples were shaken at room temperature for 1 h and then centrifuged at 14,000 × g for 2 min. An aliquot of 750 µl of the supernatant was taken and its absorbance at 451 nm measured.

[5] = maximum score 6 = all cells killed

SMILES	HET-CAM irritancy / reaction at site of application (chorioallantoic membrane)	Growth inhibition [2]	Killing of all gonococcal cells for all isolates [3]	MBC [3] [µM]	Log reduction at 1 mM: at least a 4-log reduction in viable bacteria (Yes/No) [4]	log reduction at 1000 µM [4, 5]	further results
CC(C)=O [Acetone, acetone]	Medium Irritant						
CCCC/C=C\CCCCCCCC(=O)O [Myristoleic acid]		Yes	killed all gonococcal cells for all isolates	500 (≈ 113 µg/mL)	Yes	> 6	Effect of calcium in artificial tear fluid on antimicrobial effect [1]: unaffected; Activity against C. trachomatis (C. trachomatis): ineffective
CCCCCCCCCCCC(=O)OCC(O)CO (centres unmarked) [Monolaurin]		Yes			No		Development of antimicrobial resistance (S. aureus): did not develop; Log reduction at 1 mM (calculated log reduction in viable bacteria) [4, 5]: 3.4 log10
CC/C=C\C/C=C\C/C=C\CCCCCCCC(=O)O [Linolenic acid]		Yes	did not	500 (≈ 139 µg/mL)	Yes	> 6	Mean cumulative BCOP score (bovine cornea; 1 mM in saline solution, 30 s exposure, triplicate): lower than 0.5; Fluorescein staining of cornea (bovine cornea; 1 mM, around rubber application ring): any sign of fluorescein staining; BCOP irritancy classification (bovine cornea; candidates 1 mM in saline, controls 0.5 M NaOH, 100% acetone, 30 s exposure): nonirritants; H50 concentration relative to MBC (bovine RBCs): lower than their minimum bactericidal concentration
[Na+].[OH-] [Sodium Hydroxide, sodium hydroxide, reference compound]	Strong Irritant						Corneal opacity, fluorescein staining and histology of epithelial layer (bovine cornea; Fig. 4): complete detachment
